{"source": "paper PMC3758109", "about": "(ChemistryOpen, 2012)", "origin": "cited, not measured here", "details": "humans, intravenous bolus injection", "data": [{"substance": "inulin", "values": [{"measurement": "fraction cleared in fast phase", "result": 76, "unit": "%"}, {"measurement": "fraction cleared in slow phase", "result": 24, "unit": "%"}, {"measurement": "half-life of fast phase", "result": 10, "unit": "min"}, {"measurement": "half-life of slow phase", "result": 86, "unit": "min"}]}]}
